This note sets out measurements from PubChem BioAssay AID651703 (Broad Institute, 2012).

“And” between values parts separate entries of the source, which are not always exact repeats. Equal entries are not always repeated.

For the experiment, the target named is Transforming acidic coiled-coil-containing protein 3 (Homo sapiens) (UniProt Q9Y6A5). As to the kind of experiment: ARNT/TACC3 interaction disruptors, potency, confirmation, biochemical, AlphaScreen, cherry-picked samples (AID 651703).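 Note: TACC3 partner is the GST-tagged E629A mutant dimer; hits lower the signal meaning they disrupt ARNT binding to TACC3.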 Particulars: AlphaScreen His-ARNT PAS-B / GST-TACC3 binding, luminescence. In general terms: Bead proximity is the source of the signal in Alpha formats.
With `CC(=O)Nc1cccc(C(=O)O)n1`, the AC50 – broadly, the midpoint of the concentration-response curve, whichever way the signal moves – was 12.2 µM.

Turning to `CCN1CCN(C(c2cccnc2)c2cc(Cl)c3cccnc3c2O)CC1` (configuration not stated), the AC50 is 4.03 µM. For the compound `C[C@H](Nc1nc(-c2ccccn2)nnc1-c1ccccc1)C1CCCCC1`, the AC50 was 0.53 µM. On to `COc1ccc(NC(=O)N[C@@H]2CC[C@H](CCn3cc(-c4ccccn4)nn3)O[C@@H]2CO)cc1`, for which the AC50 was 21.5 µM. The same measure for `CCC(=O)NC(c1ccc(C)cc1)c1ccc2cccnc2c1O` (configuration not stated): 4.71 µM; for `O=C(NC[C@H]1[C@@H](c2ccccc2)[C@@H](CO)N1Cc1ccccn1)C1CCC1`: 51.5 µM. With `COCCn1c(-c2ccccc2)cnc1N`, the AC50 was 31.1 µM.

In the case of `COc1cccc(C2c3[nH]c4ccccc4c3CCN2Cc2ncc[nH]2)c1` (configuration not stated), the AC50 is 38 µM. The same measure for `COc1ccc(NC(=O)N[C@H]2CC[C@H](CCn3cc(-c4ccccn4)nn3)O[C@@H]2CO)cc1`: 12 µM; for `Cn1c(-c2ccc(Cl)cc2)cnc1N`: 20.5 µM; for `Oc1c(C(Nc2ccccn2)c2cccnc2)cc(Cl)c2cccnc12` (configuration not stated): 5.67 µM. Then `Cn1c(-c2ccc3c(c2)OCO3)cnc1N`, with 39 µM; and `CC(C)(C)CCNc1nc(-c2ccccn2)nnc1-c1ccccc1`, with 0.717 µM and < 0.5 µM; and `CC(=O)NC(c1ccc(Cl)cc1Cl)c1ccc2cccnc2c1O` (configuration not stated), with 5.14 µM. Then `c1ccc(-c2nnc(-c3ccccn3)nc2NCCc2ccccn2)cc1`, with under 0.5 µM; and `Oc1ccc(CNC2CCc3ccccc32)c2cccnc12` (configuration not stated), with 1.22 µM; and `O=C(N[C@H]1CC[C@@H](CCn2cc(-c3ccccn3)nn2)O[C@H]1CO)c1ccc(F)cc1`, with 12.6 µM. With `O=S(=O)(N[C@@H]1CC[C@@H](CCn2cc(-c3ccccn3)nn2)O[C@@H]1CO)c1cccc(Cl)c1`, the AC50 is 27.2 µM. For `O=C(N/N=C\c1cccc([N+](=O)[O-])c1O)C1COc2ccccc2O1` (configuration not stated), the AC50 was 14.7 µM. For `Cc1ccc(C)c(NC(=O)CSc2n[nH]c(-c3ccccn3)n2)c1`, the half-maximal activity concentration (AC50) is 0.574 µM. The same measure for `Nn1c(SC/C=C/c2ccccc2)nnc1-c1ccccn1`: 5.62 µM. In the case of `N/C(=N\OS(=O)(=O)c1ccc(Cl)cc1)c1ccccn1`, the AC50 was 22.5 µM. Then `Cc1cc(NC(=O)CC(C)C)c(=O)n(Cc2ccccc2F)c1`, with 9.6 µM; and `Cc1ccc(/C=N/Nc2cn[nH]c(=O)n2)o1`, with 26.3 µM; and `C/C=C/c1ccc([C@H]2[C@@H](CNC(=O)CC)N(Cc3ccccn3)[C@H]2CO)cc1`, with 45 µM. As for `CC(C)(C)C1=Nn2c(nnc2-c2ccccn2)SC1`, the AC50 was 6.44 µM. Then `COc1cc(/C=N/Nc2nn3cnnc3c3ccccc23)ccc1O`, with 6.83 µM; and `Cc1nc2ncccn2c1-c1csc(Nc2ccccc2)n1`, with 41.6 µM. Then `O=C(N[C@@H]1CC[C@@H](CCn2cc(-c3ccccn3)nn2)O[C@H]1CO)c1ccncc1`, with 16.7 µM; and `Nc1nc(-c2ccccn2)nc(N)c1Cc1ccc(Cl)cc1Cl`, with 2.6 µM. Then `COc1cccc(/C=N/n2c(-c3n[nH]c4c3CCC4)n[nH]c2=S)c1O`, with 28.7 µM; and `NNc1ccc(S(=O)(=O)N2CCCCC2)cn1`, with 9.17 µM. Take `COc1ccccc1-c1nnc(NC(=O)Cc2ccccc2)o1`: the AC50 was 35 µM.

`CNc1nc(C(=O)O)nc(N2CCOCC2)n1`: the AC50 was 11.6 µM. On to `CCOc1cccc(/C=N/NC(=O)c2cc(-c3cccn3C)n[nH]2)c1O`, for which the AC50 is 17.1 µM.

`N/C(=N\OC(=O)Cc1ccc([N+](=O)[O-])cc1)c1ccccn1`: the AC50 is 21.5 µM. Then `O=C(c1ccccn1)N1CC[C@@H]2[C@H]1c1cc(Br)ccc1N[C@@H]2CO`, with 27.7 µM; and `O=C(Nc1nnc(C2=COCCO2)o1)c1ccc(Cl)cc1`, with 17.7 µM; and `Cc1c(CCO)c(=O)n(-c2ccccc2)n1S(=O)(=O)c1c(Cl)cc(Cl)cc1Cl`, with 39.8 µM. Then `N#Cc1ccsc1NC(=O)c1ccccn1`, with 21.9 µM. Take `Oc1ccc(CN2CCN(Cc3ccccc3)CC2)c2cccnc12`: the AC50 was 2.41 µM. Consider `c1ccc(-c2cn(C[C@H]3CC[C@H](Cn4cc(-c5ccccn5)nn4)O3)nn2)nc1`, for which the AC50 is under 0.5 µM.

For the compound `CSCCC(=O)Nc1nc(-c2ccccn2)cs1`, the AC50 was 8.98 µM. For the compound `N#CC1=C(N)Oc2c(ccc3cccnc23)C1c1cccnc1` (configuration not stated), the AC50 was 7.36 µM. The same measure for `Oc1ccc(CN2CCC(Cc3ccccc3)CC2)c2cccnc12`: 2.48 µM; for `O=C(CSc1ccc(-c2ccccn2)nn1)NC1CCCCC1`: 2.56 µM. The same measure for `NC(=O)CSc1nnc(-c2ccc(O)cc2)n1Cc1ccco1`: 40.8 µM; for `O=C(CSc1nnc(-c2ccccn2)o1)Nc1ccccc1Cl`: 9.92 µM; for `Cc1ccc(CNc2nc(-c3ccccn3)nnc2-c2ccccc2)cc1`: 0.736 µM.

As to `N[C@@H]1CC[C@@H](CCn2cc(-c3ccccn3)nn2)O[C@H]1CO`, the AC50 is 0.565 µM. Take `CC(=O)NC(c1ccc2ccccc2c1)c1ccc2cccnc2c1O` (configuration not stated): the concentration at half-maximal activity (AC50) is 5.44 µM. Regarding `CC1CN(Cc2ccc(O)c3ncccc23)CC(C)O1` (configuration not stated), the AC50 was 2.59 µM. As to `Cc1ccc(NC(=O)CN(C)C(=O)COc2cccc3cccnc23)cc1`, the AC50 is 41.7 µM.

Turning to `Oc1ccc(CN2CCc3ccccc3C2)c2cccnc12`, the AC50 was 0.919 µM and 1.08 µM and 2.25 µM. For the compound `NS(=O)(=O)c1ccc(N=Nc2c[nH]c(=O)c(O)c2)cc1`, the AC50 is 57.9 µM.

`COc1cc(C(=O)NCc2nnc(SCC(=O)Nc3nccs3)o2)cc(OC)c1OC`: the AC50 is 58.8 µM. In the case of `CCN(CC)S(=O)(=O)c1ccc(NN)nc1`, the AC50 is 8.98 µM.

Take `O=C(N[C@H]1CC[C@H](CCn2cc(-c3ccccn3)nn2)O[C@@H]1CO)c1ccccc1`: the AC50 was 13 µM.

As to `CCOC(=O)c1cnc(-n2[nH]c(C)cc2=O)[nH]c1=O`, the AC50 is 0.754 µM.

Turning to `Cc1nnc(-c2ccccc2)c(=O)n1/N=C/c1c(O)ccc2ccccc12`, the AC50 is 49.2 µM. On to `CCOc1ccc2c(c1)c(N=NC(=N)N)c(O)n2C`, for which the AC50 is 53.9 µM. Regarding `O=C(N[C@H]1CC[C@H](CCn2cc(-c3ccccn3)nn2)O[C@H]1CO)c1ccncc1`, the AC50 was 14.4 µM. As for `COc1cc2c(cc1OC)-c1c3c(cc4c1[C@@H](C2)N(C)CC4)OCO3`, the AC50 is 17.6 µM. Then `O=C(CN1C(=O)C2C3C=CC(C3)C2C1=O)Nc1nc(-c2ccccn2)cs1` (configuration not stated), with 6.76 µM. The same measure for `O=C(CSc1cccc2cccnc12)Nc1cc(C(=O)O)cc(C(=O)O)c1`: 17.9 µM.

For `CN1CCN(C(=O)c2cccc(-c3cc(O)c4ncccc4c3)c2)CC1`, the AC50 was 2.72 µM. The same measure for `C(=N\Nc1ncnc2nc[nH]c12)/c1cccs1`: 57.8 µM; for `O=C(NN=C(c1ccccc1)c1ccccn1)c1ccccc1`: 16.9 µM; for `C[C@@H](C(=O)Nc1nc(-c2ccccn2)cs1)N1C(=O)C2CCCCC2C1=O` (some centres not stated): 4.28 µM. Then `COc1ccc(C(=O)Cc2nnc(C)s2)c(OC)c1`, with 67.3 µM. In the case of `O=C(CSc1ccc(-c2ccccn2)nn1)NCc1ccc(Cl)cc1`, the AC50 was 11 µM.

For the compound `NCCc1cnc[nH]1`, the half-maximal activity concentration (AC50) is 23.1 µM. Then `Nc1ccccc1C(=O)N=Nc1[nH]c(N)c2ccccc12`, with 10.3 µM; and `Cc1ccc(Nc2c(-c3ccccn3)nc3cccc(C)n23)cc1`, with 3.62 µM; and `CC(C)(C)c1ccc(CNc2nc(-c3ccccn3)nnc2-c2ccccc2)cc1`, with 1.33 µM. The same measure for `c1ccc(-c2nnc(-c3ccccn3)nc2Nc2cnc3ccccc3n2)cc1`: under 0.5 µM; for `COc1cccc(/C=N/Nc2nc3ccccc3[nH]2)c1O`: 26.6 µM. Then `CC(C)(C)C(=O)Nc1ccccc1C(=O)NCCCn1ccnc1`, with 17.4 µM; and `Oc1ccccc1C(Nc1nccs1)c1ccc2cccnc2c1O` (configuration not stated), with 4.85 µM. Take `Oc1c(CN2CCOCC2)cc(COCc2ccccc2)c2cccnc12`: the AC50 was 0.614 µM. Regarding `Oc1cc(Nc2ccncc2)cc2cccnc12`, the AC50 is 0.676 µM. Then `O=C(N[C@@H]1CC[C@@H](CCn2cc(-c3ccccn3)nn2)O[C@H]1CO)c1ccc(F)cc1`, with 10.2 µM. Then `O=C(O)c1cc2c(cn1)[nH]c1ccccc12`, with 1.8 µM; and `Cc1ccc(S(=O)(=O)CCc2nnc(NC(=O)c3ccccn3)s2)cc1`, with 3.01 µM; and `COCc1cc(=O)[nH]c(Nc2nc3ccc(C)cc3o2)n1`, with 7.59 µM. The same measure for `O=C(N/N=C/c1cc(Br)ccc1O)C(c1ccncc1)N1CCOCC1` (configuration not stated): 13.4 µM; for `COc1ccccc1Nc1cc2cc(Br)ccc2c(=O)[nH]1`: 16.8 µM. Regarding `O=S(=O)(N[C@H]1CC[C@@H](CCn2cc(-c3ccccn3)nn2)O[C@@H]1CO)c1cccc(F)c1`, the AC50 was 10.9 µM. `Cc1ccc(C)c(-n2c(SCC(N)=O)nnc2-c2ccccn2)c1`: the AC50 was 20 µM. Take `COc1ccc(NC(=O)N[C@H]2CC[C@@H](CCn3cc(-c4ccccn4)nn3)O[C@@H]2CO)cc1`: the AC50 was 13.3 µM. For `c1ccc(-c2nnc(-c3ccccn3)nc2NCCCN2CCOCC2)cc1`, the AC50 was under 0.5 µM. The same measure for `O=C(Nc1nc(-c2ccccn2)cs1)C1CCCC1`: 15.5 µM. Turning to `CCc1ccc(NC(=O)CSc2ccc(-c3ccccn3)nn2)cc1`, the AC50 was 4.37 µM. Then `CCOc1cc(/C=C2\SC(=N)N(c3nccs3)C2=O)ccc1OCCN1CCOCC1`, with 35 µM; and `Cc1[nH][nH]c(=O)c1C(c1c(C)[nH][nH]c1=O)c1cn(Cc2cccc3ccccc23)c2ccccc12`, with 19.9 µM; and `O=S(=O)(c1ccccc1)N1C[C@@H]2[C@H](c3ccccc31)[C@H](CO)N2Cc1ccccn1`, with 61.5 µM. In the case of `O=C(COC(=O)c1ccc([N+](=O)[O-])s1)NCc1ccccc1`, the AC50 is 37 µM. Then `CS(=O)(=O)c1cccc(C(=O)Nc2nnc(C3=COCCO3)o2)c1`, with 45.6 µM. For `COc1cccc(/C=N/Nc2ccnc(=O)[nH]2)c1O`, the AC50 is 9.05 µM.

Take `O=C(c1ccccn1)N1CC[C@@H]2[C@H](CO)Nc3ccc(Br)cc3[C@@H]21`: the AC50 is 24.1 µM.

`CCN(CC)c1ccc(/C=N/N=C(N)N)c(O)c1`: the AC50 is 38.9 µM.

Consider `Cn1cccc1C(=O)Nc1nc(-c2ccccn2)cs1`, for which the AC50 is 5.3 µM.
